Read-outs that look alike come from different tables or passages of the source.
What was measured:
Assay in all cases: SPR (Biacore T200), SBP immobilised on CM5
Settings in all cases: 25°C, 20 mM phosphate/citrate pH 6.5, 150 mM NaCl, 0.005% Tween 20
BpAXBP1 = biological target: T1, BpAXBP1 (Bifidobacterium pseudocatenulatum, UniProt A0A087BW54); assay type: binding
T1 construct: predicted signal peptide removed, N-terminal His tag (pCold I), E. coli BL21; primers encode native start ACGGGTN after IEGRH linker and end KNLKVKK; immobilised on CM5 chip
T1 sequence (A0A087BW54 25-563): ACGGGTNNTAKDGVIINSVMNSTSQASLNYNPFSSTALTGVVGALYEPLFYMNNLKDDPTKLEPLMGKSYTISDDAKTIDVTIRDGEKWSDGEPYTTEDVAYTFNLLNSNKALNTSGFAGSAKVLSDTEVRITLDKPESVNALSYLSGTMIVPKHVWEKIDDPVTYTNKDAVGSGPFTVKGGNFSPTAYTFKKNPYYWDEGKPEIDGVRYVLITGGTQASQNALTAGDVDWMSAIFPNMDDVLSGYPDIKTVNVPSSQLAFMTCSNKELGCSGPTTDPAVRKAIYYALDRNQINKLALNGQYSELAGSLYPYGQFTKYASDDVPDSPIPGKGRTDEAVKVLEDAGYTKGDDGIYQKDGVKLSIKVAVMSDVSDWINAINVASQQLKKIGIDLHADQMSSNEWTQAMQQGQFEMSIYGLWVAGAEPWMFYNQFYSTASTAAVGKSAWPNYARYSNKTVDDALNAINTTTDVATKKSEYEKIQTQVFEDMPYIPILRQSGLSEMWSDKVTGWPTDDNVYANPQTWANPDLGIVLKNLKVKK

BpAXBP3 = biological target: T2, BpAXBP3 (Bifidobacterium pseudocatenulatum, UniProt A0ABY6YA63); assay type: binding
T2 construct: gene msmE_1; predicted signal peptide removed, N-terminal His tag (pCold I), E. coli BL21; primers encode native start KDDKTITFW after IEGRH linker and end AASKG; immobilised on CM5 chip
T2 sequence (A0ABY6YA63 29-424): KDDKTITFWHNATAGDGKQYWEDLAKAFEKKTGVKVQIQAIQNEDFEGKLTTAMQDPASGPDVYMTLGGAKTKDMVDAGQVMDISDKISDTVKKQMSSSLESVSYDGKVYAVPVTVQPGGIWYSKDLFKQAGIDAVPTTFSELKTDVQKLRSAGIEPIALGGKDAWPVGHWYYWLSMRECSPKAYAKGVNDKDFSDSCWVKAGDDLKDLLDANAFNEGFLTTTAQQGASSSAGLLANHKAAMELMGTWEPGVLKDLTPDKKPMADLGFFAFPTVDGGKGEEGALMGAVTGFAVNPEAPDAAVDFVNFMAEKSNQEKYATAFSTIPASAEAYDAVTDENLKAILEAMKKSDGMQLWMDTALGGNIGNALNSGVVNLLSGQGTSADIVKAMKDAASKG

BpAXBP2 = biological target: T3, BpAXBP2; parameters: species or system Bifidobacterium pseudocatenulatum
T3 construct: gene BBPC_RS02280; predicted signal peptide removed, N-terminal His tag (pCold I), E. coli BL21; primers encode native start ASKDEN after IEGRH linker and end ALPTE; immobilised on CM5 chip

SMILES | Kd (BpAXBP3) [µM] | Kd (BpAXBP1; read-out: Kd) [µM] | Kd (BpAXBP2) [µM] | Kd (BpAXBP1)
OC1OC[C@@H](O[C@@H]2OC[C@@H](O)[C@H](O)[C@H]2O)[C@H](O)[C@H]1O (stereo partly drawn) [XOS2, xylobiose] | < 100 | – | – | BpAXBP1 exhibited a high affinity for XOS and AXOS4
OC1OC[C@@H](O[C@@H]2OC[C@@H](O[C@@H]3OC[C@@H](O[C@@H]4OC[C@@H](O[C@@H]5OC[C@@H](O)[C@H](O)[C@H]5O)[C@H](O)[C@H]4O)[C@H](O)[C@H]3O)[C@H](O)[C@H]2O)[C@H](O)[C@H]1O (stereo partly drawn) [XOS5, xylopentaose] | < 100 | 1.5 | – | –
OC1OC[C@@H](O[C@@H]2OC[C@@H](O[C@@H]3OC[C@@H](O[C@@H]4OC[C@@H](O)[C@H](O)[C@H]4O)[C@H](O)[C@H]3O)[C@H](O)[C@H]2O)[C@H](O)[C@H]1O (stereo partly drawn) [XOS4, xylotetraose] | < 100 | 0.63 | – | –
OC1OC[C@@H](O[C@@H]2OC[C@@H](O[C@@H]3OC[C@@H](O)[C@H](O)[C@H]3O)[C@H](O)[C@H]2O)[C@H](O)[C@H]1O (stereo partly drawn) [XOS3, xylotriose] | < 100 | 18.7 | – | –
OC1OC[C@@H](O[C@@H]2OC[C@@H](O[C@@H]3OC[C@@H](O[C@@H]4OC[C@@H](O[C@@H]5OC[C@@H](O[C@@H]6OC[C@@H](O)[C@H](O)[C@H]6O)[C@H](O)[C@H]5O)[C@H](O)[C@H]4O)[C@H](O)[C@H]3O)[C@H](O)[C@H]2O)[C@H](O)[C@H]1O (stereo partly drawn) [XOS6, xylohexaose] | < 100 | 8.2 | – | –

Now from value to molecule, other results behind:

Kd (BpAXBP3) [µM] | Kd (BpAXBP1; read-out: Kd) [µM] | Kd (BpAXBP2) [µM] | SMILES | Kd (BpAXBP1)
< 100 | 7.5 | 103 | OC[C@@H]1O[C@@H](O[C@@H]2[C@@H](O)[C@H](O[C@@H]3CO[C@@H](O[C@@H]4COC(O)[C@H](O)[C@H]4O)[C@H](O)[C@H]3O)OC[C@H]2O[C@@H]2OC[C@@H](O)[C@H](O)[C@H]2O)[C@H](O)[C@H]1O (stereo partly drawn) [AXOS4, 3^3-α-L-arabinofuranosyl-xylotetraose] | –
< 100 | – | 0.66 | OC[C@@H]1O[C@@H](O[C@@H]2[C@@H](O)[C@H](O[C@@H]3COC(O)[C@H](O)[C@H]3O)OC[C@H]2O)[C@H](O)[C@H]1O (stereo partly drawn) [AXOS1, 3^2-α-L-arabinofuranosyl-xylobiose] | –
< 100 | – | 19.2 | OC[C@@H]1O[C@@H](O[C@H]2[C@H](O[C@@H]3CO[C@@H](O[C@@H]4COC(O)[C@H](O)[C@H]4O)[C@H](O)[C@H]3O)OC[C@@H](O)[C@@H]2O)[C@H](O)[C@H]1O (stereo partly drawn) [AXOS3, 2^3-α-L-arabinofuranosyl-xylotriose] | –
– | – | 0.69 | OC[C@@H]1O[C@@H](O[C@@H]2[C@@H](O[C@@H]3O[C@@H](CO)[C@H](O)[C@H]3O)[C@H](O[C@@H]3CO[C@@H](O[C@@H]4COC(O)[C@H](O)[C@H]4O)[C@H](O)[C@H]3O)OC[C@H]2O)[C@H](O)[C@H]1O (stereo partly drawn) [AXOS2, 2^3,3^3-di-α-L-arabinofuranosyl-xylotriose] | –
